Here are results for 13 compounds from ChEMBL document CHEMBL1201862, “PubChem BioAssay data set” (2004).

The structures appear in SMILES notation.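 Briefly, cells in 96-well plates were exposed to five compound concentrations for 48 h, and endpoints were estimated by linear interpolation. GI50 marks 50% less growth.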 Activity calls are given as the source filed them. Rule as the data show it: active = GI50 up to about 1.1 µM and inactive = higher. Where only a bound is given, the exact number is not on record here.

Holding throughout (assay): growth of human tumour cells (NCI), 48 h
For experiment [1], the system named is HCT-15.
For experiment [2], the system named is SR.
Experiment [3] concerns OVCAR-5.
The subject of experiment [4] is RPMI-8226.
Experiment [5] deals with M14.
Experiment [6] concerns NCI-H522.
The subject of experiment [7] is U-251.
Experiment [8] relates to SN12C.
For experiment [9], the system named is RXF 393.
For experiment [10], the system named is CAKI-1.
The subject of experiment [11] is NCI-H460.
Experiment [12] concerns EKVX.
The subject of experiment [13] is HCC 2998.
The subject of experiment [14] is KM12.
Experiment [15] has as its system COLO 205.
In experiment [16] the test system is MDA-MB-435.
Experiment [17] deals with MDA-MB-231.
Experiment [18] has as its system DU-145.
Experiment [19] deals with MDA-N.

Consider `CSc1nnc(C(C#N)C#N)nn1`, for which the GI50 in experiment [1] was > 100 µM; in experiment [2], > 100 µM (inactive); in experiment [3], > 100 µM (inactive); in [4], > 100 µM (inactive); in experiment [5], > 100 µM (inactive); in experiment [6], > 100 µM (inactive). For the same compound, the GI50 in experiment [7], in [8], in experiment [9], in experiment [10], in experiment [11] and in experiment [12] was > 100 µM (inactive) in each case. Besides, the GI50 in experiment [13], in experiment [14] and in experiment [15] was > 100 µM (inactive) in each case.
Regarding `CCCCOC(=O)C1C(c2ccc(Cl)cc2)NC(c2ccc(Cl)cc2)C(C(=O)OCCCC)S1(=O)=O` (stereo not given), the GI50 in experiment [1] is > 100 µM; in [2], > 100 µM (inactive); in experiment [3] it was > 100 µM (inactive); in experiment [4], > 100 µM (inactive); in [5], > 100 µM (inactive); in experiment [6], > 100 µM (inactive). Further, the GI50 in [7], in [8], in [9], in experiment [10], in [11] and in [12] was > 100 µM (inactive) throughout. Also, the GI50 in [13], in experiment [14] and in experiment [15] was > 100 µM (inactive) in each case.
`C[C@@]12[C@H]3CC[C@@H]1[C@H](O)C(=O)N2CC3`: the GI50 in experiment [1] is > 100 µM; in experiment [2], > 100 µM (inactive); in [3], > 100 µM (inactive); in [4], > 100 µM (inactive); in experiment [16], > 100 µM (inactive); in [5], > 100 µM (inactive). Besides, the GI50 in experiment [17], in [6], in experiment [7], in experiment [18], in [19] and in [9] was > 100 µM (inactive) each time. Also, the GI50 in [10], in experiment [11], in experiment [12], in experiment [13], in [14] and in experiment [15] was > 100 µM (inactive) throughout.
In the case of `CCOC1=C2N=C(C(CC)c3ccccc3F)N=C2C(=O)c2ccccc21` (stereo not given), the GI50 in [1] was > 100 µM; in experiment [2], > 100 µM (inactive); in [4], > 100 µM (inactive); in [5], > 100 µM (inactive); in [6], > 100 µM (inactive); in experiment [7] it was 8.45 µM (inactive). For the same compound, the GI50 was > 100 µM (inactive) in [8]; 2.98 µM (inactive) in experiment [9]; > 100 µM (inactive) in [10]; > 100 µM (inactive) in experiment [11]; > 100 µM (inactive) in [12]; > 100 µM (inactive) in experiment [13]. Moreover, the GI50 in experiment [14] and in experiment [15] was > 100 µM (inactive) each time.
Regarding `COc1ccc(/C=C2\CCC(C)(CN(C)C)C2=O)cc1` (stereo not given), the GI50 in experiment [1] is 60.8 µM; in experiment [2], > 10 µM (inactive); in experiment [3], > 100 µM (inactive); in experiment [4] it was 38 µM (inactive); in [5] it was > 100 µM (inactive); in experiment [6], 16.3 µM (inactive). Also, the GI50 was 76.4 µM (inactive) in [7]; > 100 µM (inactive) in experiment [8]; > 100 µM (inactive) in experiment [9]; 18.7 µM (inactive) in experiment [10]; > 100 µM (inactive) in experiment [11]; > 100 µM (inactive) in [12]. The GI50 in experiment [13], in experiment [14] and in [15] was > 100 µM (inactive) throughout.
With `COC(=O)CCCc1ccc2c(c1)CC1(C2)Cc2cc3c(cc2C1)CCCC3`, the GI50 in experiment [1] was 14 µM; in [2], < 0.01 µM (active); in experiment [3], > 100 µM (inactive); in [4], 16 µM (inactive); in experiment [16], 13.9 µM (inactive); in experiment [5], 24.7 µM (inactive). Besides, the GI50 in experiment [17] is > 100 µM (inactive); in [6] it was 17.7 µM (inactive); in experiment [7], 40.5 µM (inactive); in experiment [8], 40.6 µM (inactive); in [19], 16.8 µM (inactive); in experiment [9], 24.7 µM (inactive). Also, the GI50 in experiment [12] is 35.2 µM (inactive); in [13] it was 26.7 µM (inactive); in [14], 36.9 µM (inactive); in experiment [15] it was 20.5 µM (inactive).
As for `O=C1CCCc2cc3c(cc21)CC1(C3)Cc2ccc3c(c2C1)C(=O)CCC3` (stereo not given), the GI50 is 45.2 µM in experiment [1]; 7.45 µM (inactive) in [2]; > 100 µM (inactive) in experiment [3]; 7.59 µM (inactive) in experiment [4]; 4.91 µM (inactive) in experiment [16]; 12.7 µM (inactive) in [5]. The GI50 was 29.2 µM (inactive) in experiment [17]; 20.9 µM (inactive) in experiment [6]; 39.2 µM (inactive) in [7]; 39.8 µM (inactive) in experiment [18]; 23.6 µM (inactive) in experiment [8]; 5.18 µM (inactive) in [19]. Moreover, the GI50 in experiment [9] is 37.1 µM (inactive); in experiment [10], 10.5 µM (inactive); in experiment [11], 26.5 µM (inactive); in [12], 46.7 µM (inactive); in experiment [13], 71.8 µM (inactive); in [14] it was 14 µM (inactive). In addition, in experiment [15], the GI50 was 14.4 µM (inactive).
`O=[N+]([O-])c1cccnc1NCC1(CO)CCCC1`: the GI50 is 18.5 µM in experiment [1]; 25.4 µM (inactive) in experiment [2]; 31.6 µM (inactive) in experiment [3]; 20.2 µM (inactive) in experiment [4]; 22.4 µM (inactive) in experiment [16]; 21.7 µM (inactive) in experiment [6]. Also, the GI50 in [7] was 16.9 µM (inactive); in [18], 36 µM (inactive); in [8], 22.3 µM (inactive); in experiment [19], 21.4 µM (inactive); in [9], > 10 µM (inactive); in experiment [11], 22.5 µM (inactive). Further, the GI50 in experiment [12] was 27.8 µM (inactive); in [13], 18.8 µM (inactive).
For the compound `Cc1ccc(S(=O)(=O)C(CC(NC=O)S(=O)(=O)c2ccc(C)cc2)NC=O)cc1` (stereo not given), the GI50 in [1] is > 100 µM; in experiment [2], > 100 µM (inactive); in experiment [4], > 100 µM (inactive); in [5], > 100 µM (inactive); in experiment [6], > 100 µM (inactive); in experiment [7] it was > 100 µM (inactive). The GI50 in [8], in [9], in [10], in [11], in [12] and in [13] was > 100 µM (inactive) each time. For the same compound, the GI50 in [14] and in experiment [15] was > 100 µM (inactive) in each case.
Consider `CC(C)(C)Nc1noc(=O)n1C(C)(C)C`, for which the GI50 in [1] was > 100 µM; in [2] it was > 100 µM (inactive); in [3] it was > 100 µM (inactive); in experiment [4], > 100 µM (inactive); in experiment [16] it was > 100 µM (inactive); in experiment [5], > 100 µM (inactive). Besides, the GI50 in experiment [17], in experiment [6], in experiment [7], in experiment [18], in experiment [8] and in [19] was > 100 µM (inactive) each time. Besides, the GI50 in experiment [9], in [10], in experiment [11], in [12], in [14] and in experiment [15] was > 100 µM (inactive) each time.
For the compound `C/C=C/C#CC#C/C=C/C=C/C(O)CCO` (stereo not given), the GI50 is > 23.1 µM in experiment [1]; > 23.1 µM (inactive) in [2]; > 23.1 µM (inactive) in [3]; > 23.1 µM (inactive) in experiment [4]; > 23.1 µM (inactive) in experiment [5]; > 23.1 µM (inactive) in experiment [6]. In addition, the GI50 in experiment [7], in experiment [8], in experiment [9], in [10], in experiment [11] and in experiment [12] was > 23.1 µM (inactive) in each case. Also, the GI50 in experiment [13], in [14] and in experiment [15] was > 23.1 µM (inactive) throughout.
Turning to `O=c1ssc2ncccc12`, the GI50 in experiment [1] is 12.1 µM; in experiment [2], 48.2 µM (inactive); in experiment [3], 26 µM (inactive); in experiment [4], 12.9 µM (inactive); in experiment [16] it was 15.4 µM (inactive); in experiment [5], 17.9 µM (inactive). In addition, the GI50 was 11.9 µM (inactive) in experiment [17]; 7.8 µM (inactive) in experiment [6]; 15.7 µM (inactive) in experiment [7]; 33.7 µM (inactive) in experiment [18]; 15.1 µM (inactive) in experiment [8]; 19 µM (inactive) in [19]. Besides, the GI50 in experiment [9] was 18.1 µM (inactive); in experiment [10], 56.6 µM (inactive); in experiment [11], 20.4 µM (inactive); in [12], 30.2 µM (inactive); in experiment [13], 19.8 µM (inactive); in [14], 20.1 µM (inactive). For the same compound, in experiment [15], the GI50 was 17.9 µM (inactive).
Consider `COc1cc(CNc2nc3cc(C(F)(F)F)ccc3nc2C)cc(OC)c1OC`, for which the GI50 in [1] is 13.1 µM; in [2], 14.5 µM (inactive); in experiment [4], 11.7 µM (inactive); in experiment [16] it was 19.5 µM (inactive); in experiment [5], 12.4 µM (inactive); in [17] it was 14.5 µM (inactive). The GI50 in [6] was 18.3 µM (inactive); in experiment [7], 15.3 µM (inactive); in experiment [18], 26.4 µM (inactive); in [8] it was 14.7 µM (inactive); in [19] it was 15.8 µM (inactive); in experiment [9] it was 16.6 µM (inactive). In addition, the GI50 is 24.7 µM (inactive) in experiment [10]; 16.3 µM (inactive) in experiment [11]; 17 µM (inactive) in [12]; 18.3 µM (inactive) in experiment [13]; 15.9 µM (inactive) in experiment [14]; 12.8 µM (inactive) in [15].
